Experiments:
[1] = test system: NSCLC, multi-focal, recurrent adenocarcinoma (right lung); experiment: MiCK assay, drug-induced apoptosis, Table 3 tumor D1; assay type: cell-based, human; details: Table 3 tumor D1: NSCLC, multi-focal, recurrent adenocarcinoma (right lung); 48 hours with drug
Text: (§1) Data were obtained optically using Mie light-scattering.
(§2) Do a test well. […] Look at the well under the inverted microscope. […] Repeat until optimal cell concentration is found. Plate the cells into the wells.

[2] = test system: NSCLC, bilateral well-differentiated adenocarcinoma (site 1A); experiment: MiCK assay, drug-induced apoptosis, Table 3 tumor B1; assay type: cell-based, human; details: Table 3 tumor B1: NSCLC, bilateral well-differentiated adenocarcinoma (site 1A); 48 hours with drug
Text: as §1, §2

[3] = test system: Lung adenocarcinoma (site B); experiment: MiCK assay, drug-induced apoptosis, Table 4 tumor C2; details: Table 4 tumor C2: Lung adenocarcinoma (site B); 48 hours with drug
Experimental: (§4) After overnight incubation, chemotherapy drugs were added to the wells of the 96-well plate in 5 μL aliquots or to the wells of a 384-well plate in 2.5 μL aliquots using an automated pipettor. The number of drugs or drug combinations and the number of concentrations tested depended on the number of viable malignant cells that were isolated from the tumor specimen. The drug concentrations, determined by molarity, were those indicated by the manufacturer as the desired blood level concentration plus or minus one serial dilution if enough cells were available.
(§5) Following drug addition, the plate was incubated for 30 min. at 37° C. in a 5% carbon dioxide humidified atmosphere incubator. Each well was then overlayed with sterile mineral oil, and the plate was placed into the incubator chamber of a microplate spectrophotometric reader. The optical density at 600 nanometers was read and recorded every 5 minutes over a period of 48 hours. Optical density increases, which correlates with apoptosis, were converted to kinetic units (KU) of apoptosis by a proprietary software ProApo with a formula described in the Kravtsov reference incorporated by reference (i.e. Kravtsov V. et al. “Use of the Microculture Kinetic Assay of apoptosis to determine chemosensitivities of leukemias.” Blood 1998; 92:968-980).
(§6) Purified tumor cells were cultured for 48 hours with individual drugs, and drug-induced apoptosis was measured using the MiCK assay as described in Example 1. Data were obtained optically using Mie light-scattering.

[4] = test system: Lung small cell carcinoma (site A); experiment: MiCK assay, drug-induced apoptosis, Table 4 tumor C1; details: Table 4 tumor C1: Lung small cell carcinoma (site A); 48 hours with drug
Experimental: as §4
(§7) Following drug addition, the plate was incubated for 30 min. at 37° C. in a 5% carbon dioxide humidified atmosphere incubator. Each well was then overlayed with sterile mineral oil, and the plate was placed into the incubator chamber of a microplate spectrophotometric reader. The optical density at 600 nanometers was read and recorded every 5 minutes over a period of 48 hours.
(§8) Patients: Three patients were included in this study. Two tumor samples from different tumor sites were collected from each patient. Both samples from each patient were collected on the same day.

[5] = test system: NSCLC, bilateral well-differentiated adenocarcinoma (site 1B); experiment: MiCK assay, drug-induced apoptosis, Table 3 tumor B2; assay type: cell-based, human; details: Table 3 tumor B2: NSCLC, bilateral well-differentiated adenocarcinoma (site 1B); 48 hours with drug
Text: as §1, §2

[6] = test system: Pancreatic islet cell cancer (lymph node); experiment: MiCK assay, drug-induced apoptosis, Table 4 tumor A1; details: Table 4 tumor A1: Pancreatic islet cell cancer (lymph node); 48 hours with drug
Experimental: as §4, §7, §8

[7] = test system: Probable mesothelioma (pleural effusion); experiment: MiCK assay, drug-induced apoptosis, Table 3 tumor A2; assay type: cell-based, human; details: Table 3 tumor A2: Probable mesothelioma (pleural effusion); 48 hours with drug
Experimental: as §1
When the optimal cell concentration is reached, put the cells in the plate and incubate overnight in the incubating chamber of the incubator (37° C.).

[8] = test system: Lung adenocarcinoma (solid tumor); experiment: MiCK assay, drug-induced apoptosis, Table 4 tumor B2; assay type: cell-based, human; details: Table 4 tumor B2: Lung adenocarcinoma (solid tumor); 48 hours with drug
Text: as §1
(§3) Patients: Three patients were included in this study. […] Patient A was diagnosed with pancreatic islet cell cancer; sample 1 was collected from lymph node and sample 2 was collected from the primary tumor. Patient B was diagnosed with lung cancer NSCLC adenocarcinoma; sample 1 was collected from pleural effusion and sample 2 was collected from solid tumor. […] Ages of the patients ranged from 51-79 years old with an average age of 65 years. One patient was […] and two were female.

[9] = test system: Lung adenocarcinoma (pleural effusion); experiment: MiCK assay, drug-induced apoptosis, Table 4 tumor B1; assay type: cell-based, human; details: Table 4 tumor B1: Lung adenocarcinoma (pleural effusion); 48 hours with drug
Text: as §1, §3

[10] = test system: Pancreatic islet cell cancer (primary tumor); experiment: MiCK assay, drug-induced apoptosis, Table 4 tumor A2; details: 48 hours with drug
Experimental: as §4, §5, §6

[11] = test system: NSCLC, multi-focal, recurrent adenocarcinoma (lymph node); experiment: MiCK assay, drug-induced apoptosis, Table 3 tumor D2; assay type: cell-based, human; details: Table 3 tumor D2: NSCLC, multi-focal, recurrent adenocarcinoma (lymph node); 48 hours with drug
Text: as §1, §2

[12] = test system: NSCLC, multi-focal adenocarcinoma (site A); experiment: MiCK assay, drug-induced apoptosis, Table 3 tumor E1; assay type: cell-based, human; details: Table 3 tumor E1: NSCLC, multi-focal adenocarcinoma (site A); 48 hours with drug
Text: as §1, §2

[13] = test system: NSCLC, multi-focal, recurrent adenocarcinoma (site A); experiment: MiCK assay, drug-induced apoptosis, Table 3 tumor C1; assay type: cell-based, human; details: Table 3 tumor C1: NSCLC, multi-focal, recurrent adenocarcinoma (site A); 48 hours with drug
Text: as §1, §2

[14] = test system: NSCLC, multi-focal adenocarcinoma (site B); experiment: MiCK assay, drug-induced apoptosis, Table 3 tumor E2; assay type: cell-based, human; details: Table 3 tumor E2: NSCLC, multi-focal adenocarcinoma (site B); 48 hours with drug
Text: as §1, §2

[15] = test system: NSCLC, multi-focal, recurrent adenocarcinoma (site B); experiment: MiCK assay, drug-induced apoptosis, Table 3 tumor C2; assay type: cell-based, human; details: Table 3 tumor C2: NSCLC, multi-focal, recurrent adenocarcinoma (site B); 48 hours with drug
Text: as §1, §2

Structure (SMILES)	kinetic units (KU) of apoptosis [1] [KU]	kinetic units (KU) of apoptosis [2] [KU]	kinetic units (KU) of apoptosis [3] [KU]	kinetic units (KU) of apoptosis [4] [KU]	kinetic units (KU) of apoptosis [5] [KU]	kinetic units (KU) of apoptosis [6] [KU]	kinetic units (KU) of apoptosis [7] [KU]	kinetic units (KU) of apoptosis [8] [KU]	kinetic units (KU) of apoptosis [9] [KU]	kinetic units (KU) of apoptosis [10] [KU]	kinetic units (KU) of apoptosis [11] [KU]	kinetic units (KU) of apoptosis [12] [KU]	kinetic units (KU) of apoptosis [13] [KU]	kinetic units (KU) of apoptosis [14] [KU]	kinetic units (KU) of apoptosis [15] [KU]
COc1cccc2c1C(=O)c1c(O)c3c(c(O)c1C2=O)C[C@@](O)(C(=O)CO)C[C@@H]3O[C@H]1C[C@H](N)[C@@H](O)[C@H](C)O1 [Epirubicin]	1.40	0.90	3.20	8.70	1.20	1.61	3.80	3.50	2.70						
COc1cc([C@@H]2c3cc4c(cc3[C@@H](O[C@@H]3O[C@@H]5CO[C@@H](C)O[C@H]5[C@H](O)[C@H]3O)[C@H]3COC(=O)[C@H]23)OCO4)cc(OC)c1O [Etoposide]	1.60	1.10		4.60	1.20	1.08	1.20		2.30	0.00	0.90	0.40	0.80		
CCc1c2c(nc3ccc(OC(=O)N4CCC(N5CCCCC5)CC4)cc13)-c1cc3c(c(=O)n1C2)COC(=O)[C@]3(O)CC [Irinotecan]	0.40	1.60	2.10	1.40	1.50	1.50	1.30		0.60	1.16	0.90	0.60	0.40	0.10	0.30
CN(Cc1cnc2nc(N)nc(N)c2n1)c1ccc(C(=O)N[C@@H](CCC(=O)O)C(=O)O)cc1 [Methotrexate]		1.00	0.60	1.30		0.66	0.50	1.30	1.40						
O=C1[O][Pt]2([NH][C@@H]3CCCC[C@H]3[NH]2)[O]C1=O [Oxaliplatin]			2.50	4.40		1.08		3.10	3.00						
CC[C@@]1(O)C(=O)OCc2c1cc1n(c2=O)Cc2cc3c(CN(C)C)c(O)ccc3nc2-1 [Topotecan]	0.40	1.70	4.10	9.30	0.80		3.60		1.30		1.00	0.70	0.50	0.30	0.00
CC[C@]1(O)C[C@H]2CN(CCc3c([nH]c4ccccc34)[C@@](C(=O)OC)(c3cc4c(cc3OC)N(C=O)[C@H]3[C@@](O)(C(=O)OC)[C@H](OC(C)=O)[C@]5(CC)C=CCN6CC[C@]43[C@@H]65)C2)C1 [Vincristine]	0.40	1.30	1.60	1.00	1.50	0.82	2.80		0.90		0.90	0.10	0.00	0.10	0.40

Reference: patent US20230184744A1, “INTERTUMORAL HOMOGENEITY DETERMINED BY MiCK ASSAY” (Pierian Biosciences, LLC, priority 2014, published 2023)
